{
  "source": "patent US7951560B2",
  "about": "“Delta 4,5 glycuronidase compositions and methods related thereto” (Massachusetts Institute of Technology, priority 2002, dated 2011)",
  "molecules": {"B1": {"name": "full-length enzyme: full-length 402 amino acid Δ4, 5 glycuronidase, SEQ ID NO:3, expressed as N-terminal 6× His-tag fusion (protein, listed as Flavobacterium heparinum)", "chain": "MKSLLSAFVATIALIGSANGMTVTKGNGDDWLKKSTKTAVIQLTRAAQTYTPGMNPRSVNPDGTVRLAPPRDWTTGFFPGTLWYGYELSGDKNLAAEAKRFTLALDTIQYVKDTHDLGFMLYCSYGNAYRVTGDKIYLKPLENGAANLYARFNKKVGAIRSWDFGHWQFPVIIDNLMNLEYLYWAGKEFNKPEWFDAAKTHAVTTMKNHFRKDYSSYHVISYDTLSGKVLQRETHQGLTNESAWARGQAWGLYGYTMSYKDTKDKKFIEHAEHIAAFIMNHPAMPADKIPLWDFDVHNRDRSPRDASAAAVIASALLDLSTQVKDGQKYFKFAEDILKTLSSDEYLAKPGENQFFILKHSVGALLYNSEIDTPLNYADYYYLEALKRYAEIKKIDLKTINQS", "modifications": "N-terminal 6xHis tag"}},
  "key": {"Δ4, 5 glycuronidase [1]": {"test_system": "Δ4, 5 glycuronidase", "test": "Extended timecourse hydrolysis of non-heparin disaccharides", "format": "biochemical, F. heparinum", "conditions": "after approximately 18 hours, considerably higher enzyme concentrations", "procedure": "None of the non-heparin disaccharides were hydrolyzed under the conditions for measuring substrate kinetics. […] At the same time, these disaccharides were slowly hydrolyzed to varying degrees when the enzyme reactions were conducted over a much longer timecourse (>12 hours) and at considerably higher enzyme concentrations. After approximately 18 hours, greater than 80% of monosulfated chondroitin disaccharide (ΔUGalNac6S) was hydrolyzed, whereas the non-sulfated chondroitin (ΔUGalNAc) and the hyaluronan disaccharide (ΔUH) were still present at approximately 40% and 65%, respectively. The importance of the linkage position is, therefore, not absolute. The apparently positive effect of chondroitin 6-O-sulfation within the galactosamine is consistent with our results for the heparin substrates and provides further evidence for the influence of this position in dictating substrate specificity."}, "[2]": {"target": "T1, recombinant Δ4, 5 glycuronidase (Δ4,5^Δ20) (Pedobacter heparinus, UniProt C6Y1N7)", "T1 sequence (C6Y1N7 21-402)": "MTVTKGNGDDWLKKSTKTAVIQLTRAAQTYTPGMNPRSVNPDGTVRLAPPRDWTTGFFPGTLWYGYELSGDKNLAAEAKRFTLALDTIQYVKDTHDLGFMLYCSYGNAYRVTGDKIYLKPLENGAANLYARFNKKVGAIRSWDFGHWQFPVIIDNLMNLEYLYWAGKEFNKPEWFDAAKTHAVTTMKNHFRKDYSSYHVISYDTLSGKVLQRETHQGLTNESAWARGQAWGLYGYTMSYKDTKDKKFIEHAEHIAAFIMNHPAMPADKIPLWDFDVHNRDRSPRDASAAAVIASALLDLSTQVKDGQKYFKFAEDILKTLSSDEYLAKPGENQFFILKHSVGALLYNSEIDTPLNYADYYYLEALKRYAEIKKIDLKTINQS", "test": "Kinetic parameters of Δ4, 5 glycuronidase for disaccharide substrates (loss of absorbance at 232 nm, Michaelis-Menten fit)", "format": "biochemical, F. heparinum", "conditions": "conditions for measuring substrate kinetics", "procedure": "Assay for enzyme activity and determination of kinetic parameters. Standard reactions were carried out at 30° C. and included 100 mM sodium phosphate buffer, pH 6.4, 50 mM NaCl, 500 μM disaccharide substrate and 200 nM enzyme in a 100 μl reaction volume. Hydrolysis of heparin disaccharides was determined spectrophotometrically by measuring the loss of the Δ4, 5 chromophore measured at 232 nm Substrate hydrolysis was calculated using the following molar extinction coefficients empirically determined for each disaccharide substrate: ΔUHNAc, ε232=4,524; ΔUHNAc6S, ε232=4,300; ΔUHNS, ε232=6,600; ΔUHNS,6S, ε232=6,075; ΔUHNH26S, ε232=4,826; ΔU2SHNS, ε232=4,433. Initial rates (Vo) were extrapolated from linear activities representing <10% substrate turnover and fit to pseudo first-order kinetics. For kinetic experiments, disaccharide concentration for each respective substrate was varied from 48 to 400 μM concentrations. Km and kcat values were extrapolated from Vo vs. [S] curves fit to the Michaelis Menten equation by a non-linear, least squares regression.\nThe specificity of the Δ4, 5 glycuronidase acting on various glycosaminoglycan disaccharide substrates was investigated. The various substrates examined included both heparin and chondroitin disaccharides as well as an hyaluronadate. In particular, we considered the possibility of any structural discriminations pertaining to glycosidic linkage position (1→4 vs. 1→3) and relative sulfation state within the disaccharide. For each substrate, kinetic parameters were determined based on substrate saturation profiles that fit Michaelis-Menten assumptions (FIG. 8)."}, "Δ4, 5 glycuronidase [3]": {"test_system": "Δ4, 5 glycuronidase", "test": "Detection of Δ4, 5 glycuronidase activity by capillary electrophoresis on heparinase-digested heparin", "format": "biochemical, F. heparinum", "procedure": "Detection of Δ4, 5 glycuronidase activity by capillary electrophoresis. 200 μg of heparin (Celsus Laboratories) was subject to exhaustive heparinase digestion as described [Venkataraman, G., Shriver, Z., Raman, R., and Sasisekharan, R., 1999, Science 286, 537-42] with certain modifications that included a 50 mM PIPES buffer, pH 6.5 with 100 mM NaCl in a 100 μl reaction volume. Following heparinase treatment, 25 picomoles of Δ4, 5 glycuronidase was added to one-half of the original reaction (pre-equilibrated at 30° C.). 20 μl aliquots were removed at 1 minute and 30 minutes and activity quenched by heating at 95° C. for 10 minutes. 20 μl of the minus Δ4, 5 control (also heated for 10 minutes) was used as the 0 time point. Disaccharide products were resolved by capillary electrophoresis run for 25 minutes under positive polarity mode as previously described [Rhomberg, A. J., Ernst, S., Sasisekharan, R., and Biemann, K., 1998, Proc Natl Acad Sci USA 95, 4176-81].\nIn this manner, the Δ4, 5 should be very useful in assessing the composition of disaccharides resulting from prior heparinase treatment of heparin/heparan sulfate. For this particular experiment, we pre-treated 200 μg of heparin with a heparinase cocktail. This exhaustive digestion was then directly followed by a relatively short (1 minute) or long (30 minute) Δ4, 5 glycuronidase treatment carried out under optimal reaction conditions. The disaccharide products were then resolved by capillary electrophoresis. The electrophoretic mobility profile for the Δ4, 5 treated saccharides were then directly compared to the untreated control (i.e., heparinase treatment only) run under identical conditions (FIG. 9). 7 disaccharide peaks were present in the capillary electrophoretogram corresponding to the heparinase only control (A.). A structural assignment for each one of these peaks was made based on previously established compositional analyses. […] Predictably, the relative amplitude and area of these peaks remained the same, over the entire timecourse of the Δ4, 5 preincubation. This unchanging result extended to 18 hours. On the other hand, peaks corresponding to disaccharides lacking the 2-O sulfate were eliminated."}, "[4]": {"test": "Pilot expression of the full-length enzyme in E. coli: solubility and activity", "from_the_text": "Using PCR, we cloned from the F. heparinum genome both the full-length enzyme and the “mature” enzyme lacking the N-terminal 20 amino acid signal sequence (Δ4,5^Δ20) into a T7-based expression plasmid. Cloning into pET28a permitted the expression of the glycuronidase as an N-terminal 6× His-tag fusion protein. Pilot expression studies focused on the full-length enzyme. In these initial experiments, we examined several different induction conditions such as temperature, time and length of induction, and even IPTG concentrations."}},
  "data": [
    {"molecule": "CC(=O)NC1C(O)OC(CO)C(O)C1OC1OC(C(=O)O)=CC(O)C1O", "note": "(stereo not shown) [ΔUH]", "values": [
      {"measurement": "disaccharide still present", "setting": "Δ4, 5 glycuronidase [1]", "result": "~65", "unit": "%"}
    ]},
    {"molecule": "O=C(O)C1=C[C@H](O)[C@@H](OS(=O)(=O)O)[C@H](O[C@H]2[C@H](O)[C@@H](NS(=O)(=O)O)[C@@H](O)O[C@@H]2CO)O1", "note": "[ΔU2SHNS]", "values": [
      {"measurement": "substrate status / substrate preference", "setting": "[2]", "result": "not a substrate"}
    ]},
    {"molecule": "CC(=O)N[C@H]1C(O)O[C@H](COS(=O)(=O)O)[C@@H](O[C@@H]2OC(C(=O)O)=C[C@H](O)[C@H]2O)[C@@H]1O", "note": "(stereo partly shown) [ΔUHNAc, 6S]", "values": [
      {"measurement": "substrate status / substrate preference", "setting": "[2]", "result": "best substrates"},
      {"measurement": "hydrolysis after one minute Δ4, 5 treatment (in words)", "setting": "Δ4, 5 glycuronidase [3]", "result": "essentially hydrolyzed"}
    ]},
    {"molecule": "O=C(O)C1=C[C@H](O)[C@@H](O)[C@H](O[C@H]2[C@H](O)[C@@H](NS(=O)(=O)O)C(O)O[C@@H]2COS(=O)(=O)O)O1", "note": "(stereo partly shown) [ΔUHNS, 6S]", "values": [
      {"measurement": "substrate status / substrate preference", "setting": "[2]", "result": "roughly in the middle"},
      {"measurement": "hydrolysis by 30 minutes Δ4, 5 treatment", "setting": "Δ4, 5 glycuronidase [3]", "result": "completely depleted"},
      {"measurement": "hydrolyzed after 1 minute Δ4, 5 treatment", "setting": "Δ4, 5 glycuronidase [3]", "result": "approximately 75%"}
    ]},
    {"molecule": "CC(=O)N[C@H]1C(O)O[C@H](CO)[C@@H](O[C@@H]2OC(C(=O)O)=C[C@H](O)[C@H]2O)[C@@H]1O", "note": "(stereo partly shown) [ΔUHNac]", "values": [
      {"measurement": "substrate status / substrate preference", "setting": "[2]", "result": "best substrates"}
    ]},
    {"molecule": "O=C(O)C1=C[C@H](O)[C@@H](O)[C@H](O[C@H]2[C@H](O)[C@@H](NS(=O)(=O)O)C(O)O[C@@H]2CO)O1", "note": "(stereo partly shown) [ΔUHNS]", "values": [
      {"measurement": "substrate status / substrate preference", "setting": "[2]", "result": "less good as substrates"},
      {"measurement": "hydrolysis by 30 minutes Δ4, 5 treatment", "setting": "Δ4, 5 glycuronidase [3]", "result": "completely depleted"},
      {"measurement": "hydrolyzed after 1 minute Δ4, 5 treatment", "setting": "Δ4, 5 glycuronidase [3]", "result": "~50", "unit": "%"}
    ]},
    {"molecule": "N[C@H]1C(O)O[C@H](COS(=O)(=O)O)[C@@H](O[C@@H]2OC(C(=O)O)=C[C@H](O)[C@H]2O)[C@@H]1O", "note": "(stereo partly shown) [ΔUHNH2, 6S]", "values": [
      {"measurement": "substrate status / substrate preference", "setting": "[2]", "result": "less good as substrates"}
    ]},
    {"molecule": "CC(=O)NC1C(O)OC(CO)C(O)C1OC1OC(C(=O)O)=CC(O)C1O", "note": "(stereo not shown) [ΔUGalNAc]", "values": [
      {"measurement": "disaccharide still present", "setting": "Δ4, 5 glycuronidase [1]", "result": "approximately 40%"}
    ]},
    {"molecule": "CC(=O)N[C@H]1C(O)O[C@H](COS(=O)(=O)[O-])[C@H](O)[C@@H]1OC1OC(C(=O)[O-])=C[C@H](O)[C@H]1O.[Na+].[Na+]", "note": "(stereo partly shown) [ΔUGalNac6S]", "values": [
      {"measurement": "disaccharide hydrolyzed", "setting": "Δ4, 5 glycuronidase [1]", "result": "greater than 80%"}
    ]},
    {"molecule": "B1", "values": [
      {"measurement": "solubility on recombinant expression", "setting": "[4]; N-terminal 6× His-tag fusion, all induction conditions examined", "result": "nearly exclusively as an insoluble fraction"},
      {"measurement": "activity of partially purified, solubilised enzyme", "setting": "[4]; solubilised with detergents (e.g., CHAPS), salt, glycerol", "result": "largely inactive"}
    ]}
  ]
}
